Usually IC50 stands for the concentration that gives 50% inhibition.

The structures appear in SMILES notation. Read-outs that look alike come from different tables or passages of the source.

27 molecules from US10711004B2 (Genentech, Inc., priority 2018, dated 2020) can be followed below.

This assay addresses human TRPA1 channel (Homo sapiens (Human), UniProt O75762). The assay is described as follows: hTRPA1 CHO Ca2+ FLIPR Tetra assay, block of cinnamaldehyde induced calcium influx. The assay is classed as cell-based. The conditions noted are these: CHO cells expressing TRPA1, Hill coefficient fixed to 1.5. As to the method:
CHO cells expressing TRPA1 were plated into 384-well plates, incubated overnight at 37° C., and loaded with BD calcium indicator dye for 1 hr at 37° C. followed by 15 minutes at room temperature. The assay buffer was Hank's Balanced Salt Solution (HBSS) containing 20 mM HEPES (pH readjusted to 7.4) along with 0.02% BSA.
Following dye load and plate cool down, compounds were added to the cells using FLIPR Tetra. Plates were then incubated with compounds for 10 minutes or 90 minutes at room temperature prior to adding agonist. Following this incubation, about an EC50 concentration of cinnamaldehyde (75) was added to active the channels and block of cinnamaldehyde induced calcium influx was measured.
Fixing the Hill coefficient will generally reduce variability of the IC50 determination. The IC50 results were individually examined to make sure the MIN and MAX points were set correctly prior to validation of the results.

Setting [1] is: read-out: hTRPA1 IC50 (10 min), compounds incubated 10 minutes at room temperature before cinnamaldehyde agonist.
The mark [2] stands for this setting: read-out: hTRPA1 IC50 (90 min), compounds incubated 90 minutes at room temperature before cinnamaldehyde agonist.
Where [3] appears, read: compounds incubated 10 minutes at room temperature before cinnamaldehyde agonist.

Chain of human TRPA1 channel (O75762 whole entry): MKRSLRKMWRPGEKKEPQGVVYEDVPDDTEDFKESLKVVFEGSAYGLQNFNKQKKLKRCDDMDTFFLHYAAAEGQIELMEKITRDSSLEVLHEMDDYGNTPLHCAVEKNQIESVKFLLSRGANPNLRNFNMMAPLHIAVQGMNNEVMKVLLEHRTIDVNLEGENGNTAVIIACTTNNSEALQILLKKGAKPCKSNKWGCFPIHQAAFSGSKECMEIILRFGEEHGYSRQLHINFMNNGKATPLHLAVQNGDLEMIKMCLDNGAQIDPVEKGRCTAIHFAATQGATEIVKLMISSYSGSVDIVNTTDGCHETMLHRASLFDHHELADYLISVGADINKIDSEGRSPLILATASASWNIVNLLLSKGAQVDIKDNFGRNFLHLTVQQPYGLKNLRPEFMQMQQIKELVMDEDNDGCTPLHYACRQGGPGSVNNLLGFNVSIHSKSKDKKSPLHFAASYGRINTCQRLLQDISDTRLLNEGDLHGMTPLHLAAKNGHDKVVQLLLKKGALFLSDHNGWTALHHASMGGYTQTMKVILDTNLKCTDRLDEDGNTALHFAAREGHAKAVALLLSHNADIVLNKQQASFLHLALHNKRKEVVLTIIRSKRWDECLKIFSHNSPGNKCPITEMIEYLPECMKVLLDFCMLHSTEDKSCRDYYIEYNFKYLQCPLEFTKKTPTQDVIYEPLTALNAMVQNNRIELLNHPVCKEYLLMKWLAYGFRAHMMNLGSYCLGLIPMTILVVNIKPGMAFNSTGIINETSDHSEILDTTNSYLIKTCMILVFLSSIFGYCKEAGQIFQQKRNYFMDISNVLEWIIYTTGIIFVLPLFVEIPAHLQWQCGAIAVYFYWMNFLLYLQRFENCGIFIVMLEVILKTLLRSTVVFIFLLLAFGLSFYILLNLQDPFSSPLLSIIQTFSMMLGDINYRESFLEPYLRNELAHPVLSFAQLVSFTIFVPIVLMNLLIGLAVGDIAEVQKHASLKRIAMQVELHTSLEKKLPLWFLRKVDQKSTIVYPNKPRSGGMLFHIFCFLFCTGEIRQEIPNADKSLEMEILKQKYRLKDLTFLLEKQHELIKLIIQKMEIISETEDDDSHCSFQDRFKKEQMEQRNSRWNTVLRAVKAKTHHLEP

On to `CC(=O)c1cccc(N2C[C@@H]3[C@H](C2)[C@H]3c2noc(Cn3cnc4ncn(C)c4c3=O)n2)c1`, for which the IC50 under setting [1] is 295 nM. As to `Cn1cnc2ncn(Cc3nc([C@H]4[C@@H]5CN(c6ccc(F)cc6)C[C@@H]54)no3)c(=O)c21` [Example Compound 7, 7-methyl-1-[[3-[(1R,5S,6 r)-3-(4-fluorophenyl)-3-azabicyclo[3.1.0]hexan-6-yl]-1,2,4-oxadiazol-5-yl]methyl]purin-6-one], the IC50 under setting [1] came to 31 nM.

For the molecule `Cn1cnc2ncn(Cc3nc([C@H]4[C@@H]5CN(c6ccc(Cl)c(Cl)c6)C[C@@H]54)no3)c(=O)c21`, the IC50 under setting [1] stood at 64.3 nM. Turning to `Cn1cnc2ncn(Cc3nc([C@H]4[C@@H]5C=C(c6ccc7[nH]ncc7c6)C[C@@H]54)no3)c(=O)c21` [Example Compound 268, 7-methyl-1-[[3-[(1S,5S,6R)-3-(1H-indazol-5-yl)-6-bicyclo[3.1.0]hex-2-enyl]-1,2,4-oxadiazol-5-yl]methyl]purin-6-one], the IC50 was 20 nM under setting [1] and 12 nM under setting [2]. Consider `Cn1cnc2ncn(Cc3nc([C@@H]4[C@H]5C=C(c6cccc(F)c6F)C[C@H]54)no3)c(=O)c21` [Example Compound 282, 7-methyl-1-[[3-[(1R,5R,6S)-3-(2,3-difluorophenyl)-6-bicyclo[3.1.0]hex-2-enyl]-1,2,4-oxadiazol-5-yl]methyl]purin-6-one], for which the IC50 (read-out: hTRPA1 IC50 (10 min), compounds incubated 10 minutes at room temperature before cinnamaldehyde agonist, listed as 282) is 16.9 nM and the IC50 (read-out: hTRPA1 IC50 (90 min), compounds incubated 90 minutes at room temperature before cinnamaldehyde agonist, listed as 282) worked out at 3.1 nM. As to `O=c1c2ccncc2ncn1Cc1nc([C@H]2C[C@](F)(c3ccc(Cl)cc3)C2)no1`, the IC50 under setting [1] was 190 nM. Same read-out and setting: with `Cn1cnc2ncn(Cc3nc([C@@H]4CC[C@@H](c5ccccc5)C4)no3)c(=O)c21` the figure was 149 nM. On the same count and under the same terms, with `O=c1c2cccnc2ncn1Cc1nc([C@H]2C[C@](F)(c3ccc(Cl)cc3)C2)no1` the figure was 20.2 nM; with `O=c1c2cccnc2ncn1Cc1nc([C@H]2C[C@](F)(c3cccc(Cl)c3)C2)no1` [Example Compound 198, 3-((3-((1s,3s)-3-(3-chlorophenyl)-3-fluorocyclobutyl)-1,2,4-oxadiazol-5-yl)methyl)pyrido[2,3-d]pyrimidin-4(3H)-one], 58.7 nM. As to `Cn1cnc2ncn(Cc3nc([C@@H]4[C@H]5C=C(c6cccc(C(F)F)c6)C[C@H]54)no3)c(=O)c21` [Example Compound 102, 1-((3-((1R,5R,6S)-3-(3-(difluoromethyl)phenyl)bicyclo[3.1.0]hex-2-en-6-yl)-1,2,4-oxadiazol-5-yl)methyl)-7-methyl-1,7-dihydro-6H-purin-6-one], the concentration for half-maximal inhibition (IC50) by setting is: under setting [1], 49.5 nM; under setting [2], 37 nM.

For `Cc1cnn2ncn(Cc3nc([C@H]4C[C@](F)(c5cccc(Cl)c5)C4)no3)c(=O)c12` [Example Compound 253, 3-[[3-[trans-3-(3-chlorophenyl)-3-fluoro-cyclobutyl]-1,2,4-oxadiazol-5-yl]methyl]-5-methyl-pyrazolo[5,1-f][1,2,4]triazin-4-one], the IC50 was 43.5 nM under setting [1] and 31 nM under setting [2].

As to `Cn1cnc2ncn(Cc3nc([C@@H]4[C@H]5Cc6ccccc6[C@H]54)no3)c(=O)c21` (stereo in doubt) [Example Compound 2, 7-methyl-1-[[3-[rac-(1R,1aR,6aS)-1,1a,6,6a-tetrahydrocyclopropa[a]inden-1-yl]-1,2,4-oxadiazol-5-yl]methyl]purin-6-one], the IC50 under setting [3] was found to be 277 nM.

In the case of `Cc1ccnc2ncn(Cc3nc([C@@H]4[C@H]5Cc6ccccc6[C@H]54)no3)c(=O)c12` (stereo in doubt) [Example Compound 14, 5-methyl-3-[[3-[rac-(1S,1aS,6aR)-1,1a,6,6a-tetrahydrocyclopropa[a]inden-1-yl]-1,2,4-oxadiazol-5-yl]methyl]pyrido[2,3-d]pyrimidin-4-one], under setting [3], the IC50 was 119 nM. As to `Cc1cncc2ncn(Cc3nc([C@H]4C[C@](O)(c5ccc(Cl)cc5)C4)no3)c(=O)c12` [Example Compound 9, 3-((3-((1s,3s)-3-(4-chlorophenyl)-3-hydroxycyclobutyl)-1,2,4-oxadiazol-5-yl)methyl)-5-methylpyrido[3,4-d]pyrimidin-4(3H)-one], under setting [1], the IC50 was 30.9 nM. Regarding `Cn1cnc2ncn(Cc3nc([C@@H]4[C@H]5C=C(c6ccc(F)c(F)c6)C[C@H]54)no3)c(=O)c21` [Example Compound 94, 1-((3-((1R,5R,6S)-3-(3,4-difluorophenyl)bicyclo[3.1.0]hex-2-en-6-yl)-1,2,4-oxadiazol-5-yl)methyl)-7-methyl-1,7-dihydro-6H-purin-6-one], the IC50 runs as follows: under setting [1], 9.35 nM; under setting [2], 4.9 nM.

In the case of `Cn1cnc2ncn(Cc3nc([C@H]4[C@@H]5CN(c6ccccn6)C[C@@H]54)no3)c(=O)c21` [Example Compound 228, 7-methyl-1-((3-((1R,5S,6r)-3-(pyridin-2-yl)-3-azabicyclo[3.1.0]hexan-6-yl)-1,2,4-oxadiazol-5-yl)methyl)-1,7-dihydro-6H-purin-6-one], the concentration for half-maximal inhibition (IC50) is 223 nM under setting [1] and 130 nM under setting [2]. As for `Cn1cnc2ncn(Cc3nc([C@H]4[C@@H]5CN(C[C@@H](F)c6ccc(Cl)cc6)C[C@@H]54)no3)c(=O)c21` [Example Compound 156, 1-((3-((1R,5S,6S)-3-((S)-2-(4-chlorophenyl)-2-fluoroethyl)-3-azabicyclo[3.1.0]hexan-6-yl)-1,2,4-oxadiazol-5-yl)methyl)-7-methyl-1,7-dihydro-6H-purin-6-one], the IC50 is, setting by setting: under setting [1], 843 nM; under setting [2], 860 nM. Consider `Cc1ccnc2ncn(Cc3nc([C@H]4[C@@H]5CN(c6ccc(Cl)cc6)C[C@@H]54)no3)c(=O)c12` [Example Compound 29, 5-methyl-3-[[3-[(1R,5S,6r)-3-(4-chlorophenyl)-3-azabicyclo[3.1.0]hexan-6-yl]-1,2,4-oxadiazol-5-yl]methyl]pyrido[2,3-d]pyrimidin-4-one], for which, under setting [1], the IC50 amounted to 290 nM. For the molecule `Cn1cnc2ncn(Cc3nc([C@H]4[C@@H]5C=C(c6ccc(C#N)cc6)C[C@@H]54)no3)c(=O)c21` [Example Compound 256, 4-[(1S,5S,6R)-6-[5-[(7-methyl-6-oxo-purin-1-yl)methyl]-1,2,4-oxadiazol-3-yl]-3-bicyclo[3.1.0]hex-2-enyl]benzonitrile], the IC50 was found to be 21.7 nM under setting [1] and 6.6 nM under setting [2]. The corresponding values for `O=c1c2cccnc2ncn1Cc1nc([C@@H]2[C@H]3C=C(c4cccc(Cl)c4)C[C@H]32)no1` [Example Compound 181, 3-((3-((1R,5R,6S)-3-(3-chlorophenyl)bicyclo[3.1.0]hex-2-en-6-yl)-1,2,4-oxadiazol-5-yl)methyl)pyrido[2,3-d]pyrimidin-4(3H)-one] are 21.8 nM and 21 nM. For `Cn1cnc2ncn(Cc3nc([C@H]4[C@@H]5CN(c6ccc7ccccc7c6)C[C@@H]54)no3)c(=O)c21` [Example Compound 33, 7-methyl-1-[[3-[(1R,5S,6r)-3-[2-naphthyl]-3-azabicyclo[3.1.0]hexan-6-yl]-1,2,4-oxadiazol-5-yl]methyl]purin-6-one], under setting [1], the IC50 is 7.31 nM. As for `Cn1cc(-c2cccc(N3C[C@@H]4[C@H](C3)[C@H]4c3noc(Cn4ncc5ncccc5c4=O)n3)c2)cn1` [Example Compound 169, 6-((3-((1R,5S,6r)-3-(3-(1-methyl-1H-pyrazol-4-yl)phenyl)-3-azabicyclo[3.1.0]hexan-6-yl)-1,2,4-oxadiazol-5-yl)methyl)pyrido[2,3-d]pyridazin-5(6H)-one], the IC50 under setting [1] is 43 nM and the IC50 under setting [2] was 41 nM.

Regarding `Cn1cnc2ncn(Cc3nc([C@H]4[C@@H]5C=C(c6cc(F)c(F)c(F)c6)C[C@@H]54)no3)c(=O)c21` [Example Compound 251, 7-methyl-1-[[3-[(1S,5S,6R)-3-(3,4,5-trifluorophendyl)-6-bicyclo[3.1.0]hex-2-enyl]-1,2,4-oxadiazol-5-yl]methyl]purin-6-one], the IC50 by setting is: under setting [1], 14.9 nM; under setting [2], 2 nM. The corresponding values for `Cn1cnc2ncn(Cc3nc([C@@H]4[C@H]5C=C(c6ccc(C(F)F)cc6)C[C@H]54)no3)c(=O)c21` [Example Compound 281, 7-methyl-1-[[3-[(1R,5R,6S)-3-[4-(difluoromethyl)phenyl]-6-bicyclo[3.1.0]hex-2-enyl]-1,2,4-oxadiazol-5-yl]methyl]purin-6-one] are 67.9 nM and 35 nM.

As to `Cc1ccnc2ncn(Cc3nc([C@H]4C[C@](F)(c5ccc(F)cc5)C4)no3)c(=O)c12` [Example Compound 196, 3-((3-((1s,3s)-3-fluoro-3-(4-fluorophenyl)cyclobutyl)-1,2,4-oxadiazol-5-yl)methyl)-5-methylpyrido[2,3-d]pyrimidin-4(3H)-one], the IC50 is, setting by setting: under setting [1], 13 nM; under setting [2], 30 nM. In the case of `Cn1cnc2ncn(Cc3nc([C@H]4C[C@H](c5ccc(OC(F)(F)F)cc5)C4)no3)c(=O)c21`, the IC50 under setting [1] was determined as 196 nM.

For `O=c1c2ccc(Cl)nc2ncn1Cc1nc([C@H]2[C@@H]3CN(c4cccc(F)c4)C[C@@H]32)no1` [Example Compound 272, 7-chloro-3-[[3-[(1R,5S)-3-(3-fluorophenyl)-3-azabicyclo[3.1.0]hexan-6-yl]-1,2,4-oxadiazol-5-yl]methyl]pyrido[2,3-d]pyrimidin-4-one], the IC50 worked out at 58.3 nM under setting [1] and 35 nM under setting [2].
